Patent US7901893B2, “NPC1L1 (NPC3) and methods of identifying ligands thereof” (Merck Sharp & Dohme Corp., priority 2004, dated 2011)
Where “and” joins values, the source holds several entries; their conditions need not be identical. Equal values may be shown once. Read-outs that look alike come from different tables or passages of the source.

Assays:
[1] = target: T1, rhesus brush border membrane vesicles (Macaca mulatta, UniProt A0MJA5); assay: Binding assay with rhesus brush border membrane vesicles
T1 sequence (A0MJA5 1-1332): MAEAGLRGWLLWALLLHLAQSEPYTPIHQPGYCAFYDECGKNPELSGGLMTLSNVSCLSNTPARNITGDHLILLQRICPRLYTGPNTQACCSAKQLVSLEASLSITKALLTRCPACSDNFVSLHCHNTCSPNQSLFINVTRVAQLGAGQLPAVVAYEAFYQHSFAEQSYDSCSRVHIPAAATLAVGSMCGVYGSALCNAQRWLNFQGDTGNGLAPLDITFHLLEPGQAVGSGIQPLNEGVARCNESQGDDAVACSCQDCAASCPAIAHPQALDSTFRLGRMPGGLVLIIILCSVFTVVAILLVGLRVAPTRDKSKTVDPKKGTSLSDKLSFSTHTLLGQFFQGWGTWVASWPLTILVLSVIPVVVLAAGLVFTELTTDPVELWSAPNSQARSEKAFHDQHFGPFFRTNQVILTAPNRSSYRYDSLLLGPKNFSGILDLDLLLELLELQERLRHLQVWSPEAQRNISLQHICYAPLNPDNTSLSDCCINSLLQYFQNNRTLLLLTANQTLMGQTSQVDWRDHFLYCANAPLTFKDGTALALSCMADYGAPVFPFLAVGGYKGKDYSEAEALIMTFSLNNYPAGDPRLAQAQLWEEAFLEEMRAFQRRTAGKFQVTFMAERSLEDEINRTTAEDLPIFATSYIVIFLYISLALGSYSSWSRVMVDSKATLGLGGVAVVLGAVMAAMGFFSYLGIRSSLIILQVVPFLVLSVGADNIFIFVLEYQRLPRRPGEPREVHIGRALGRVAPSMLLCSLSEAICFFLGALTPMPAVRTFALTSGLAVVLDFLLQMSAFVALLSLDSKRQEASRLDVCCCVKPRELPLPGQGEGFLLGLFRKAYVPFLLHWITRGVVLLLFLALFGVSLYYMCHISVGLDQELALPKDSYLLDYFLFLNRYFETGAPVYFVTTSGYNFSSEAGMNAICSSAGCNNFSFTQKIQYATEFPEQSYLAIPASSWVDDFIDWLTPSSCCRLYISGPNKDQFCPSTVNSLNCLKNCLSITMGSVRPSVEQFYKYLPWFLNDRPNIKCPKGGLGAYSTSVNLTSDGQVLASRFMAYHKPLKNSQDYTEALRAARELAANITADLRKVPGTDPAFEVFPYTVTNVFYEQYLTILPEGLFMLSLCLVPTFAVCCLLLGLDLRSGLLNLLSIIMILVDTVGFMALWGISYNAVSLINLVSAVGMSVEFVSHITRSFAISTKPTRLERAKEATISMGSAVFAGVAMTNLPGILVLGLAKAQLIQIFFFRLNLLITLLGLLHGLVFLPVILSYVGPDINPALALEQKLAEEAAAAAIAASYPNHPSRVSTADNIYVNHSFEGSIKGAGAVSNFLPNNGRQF
Description: The intestines from freshly sacrificed animals were cut into segments, perfused with ice-cold saline buffer (Buffer A: 26 mM NaHCO3, 0.96 mM NaH2PO4, 5 mM HEPES, 5.5 mM glucose, 117 mM NaCl, 5.4 mM KCl, pH=7.4), placed on cold glass plates, opened longitudinally, and the mucosa scraped with glass microscope slips. This mucosa could be used fresh or frozen with identical results. To prepare the membranes, the mucosal scrapings were resuspended in 20 volumes of cold buffer consisting of 300 mM D-mannitol, 5 mM EGTA, 12 mM Tris, pH 7.4 with HCl, and containing 0.1 mM PMSF and a 1% dilution of a protease inhibitor cocktail (set 1, Calbiochem). They were homogenized using a Polytron at medium speed on ice until inspection with a microscope indicated complete cell lysis. Then, solid MgCl2 was added slowly with stirring to a final concentration of 10 mM, and the solution was kept stirring on ice for 15 min. Cellular debris was removed by centrifugation for 15 min at 3,000 g, and the membranes were recovered by centrifugation for 60 min at 48,000 g. The membranes were further rinsed by re-suspension in a buffer containing 50 mM D-mannitol, 5 mM EGTA, and 2 mM Tris at pH 7.40, and centrifugation for 60 min at 48,000 g. The final pellet was resuspended in 120 mM NaCl and 20 mM Tris at pH 7.40 to a concentration of ˜10-20 mg protein/ml, aliquoted, frozen in liquid nitrogen, and stored at −80 C. The activity was stable indefinitely and could be freeze-thawed with minimal loss of activity.
Binding assay. Assays were conducted in 12×75 mm glass test tubes and total volume 20-100 ul. In general, frozen membranes were diluted in buffer A or buffer A containing 0.03% taurocholate and 0.05% digitonin to a final concentration of 0.02 to 5 mg/ml. […] Competing ligands were likewise added as DMSO solutions to give a total 2-10% organic solvent content. […] At least 2 components of buffer A, the bicarbonate and phosphate salts, were later found to be inconsequential and were routinely omitted.
Bound ligand was quantified by single-tube vacuum filtration using GF/C glass fiber filters. […] Filtration was accomplished by adding 2.5 ml of ice cold buffer (120 mM NaCl, 0.1% sodium cholate, and 20 mM MES at pH 6.70) to the assay tube, pouring the mixture through the filter, and then rinsing the tube and filter twice more with another 2×2.5 ml buffer. The filters were counted in 7 ml vials using Packard DM liquid scintillation fluid.
Data analysis. Data from saturation experiments were subjected to a Scatchard analysis, and linear regression was performed to yield the equilibrium dissociation constant (Kd) and maximum receptor concentration (Bmax). […] Data from competition experiments were analyzed and IC50 values determined from Hill plots of the binding data.

[2] = target: T2, rat brush border membrane vesicles (Rattus norvegicus, UniProt Q6T3U3); assay: Binding assay with rat brush border membrane vesicles
T2 construct: from tissue; host or cells: rat (male Sprague-Dawley) small-intestinal mucosa, brush border membrane vesicles
Excerpt: (§1) Glass fiber filters (GF/C) were obtained from Whatman.
Rate constants for binding and dissociation.
Analog structures are defined in Table 12.

[3] = target: T3, mouse intestinal brush border membranes (Mus musculus, UniProt Q6T3U4); assay: Binding assay with mouse (wild type) brush border membrane vesicles
T3 construct: from tissue; host or cells: mouse small-intestinal mucosa (C57BL/6J; wild-type littermates in the knockout comparison), brush border membrane vesicles
Description: as §1
For rhesus brush border membranes vesicles, 56 μg protein/assay were incubated with 25 nM ^3H-EZE-glucuronide in the presence of increasing concentrations of EZE-glucuronide and 2. For rat brush border membranes vesicles, 150 μg protein/assay were incubated with 50 nM ^3H-EZE-glucuronide in the presence of increasing concentrations of EZE-glucuronide and 2. For mouse brush border membranes vesicles, 20 μg protein/assay were incubated with 3 nM ^35S-2 in the presence of increasing concentrations of EZE-glucuronide and 2.
Brush border membranes vesicles were prepared from intestinal tissues of wild type and NPC1L1 knockout (−/−) mice. 15, 30 and 60 μg protein/assay of brush border membranes vesicles were incubated with 4 nM ^35S-2 in buffer A for 3 hours at 37° C. in the presence and absence of 100 μM EZE-glucuronide.
For FIG. 14A, enterocyte brush border membranes were prepared from NPC1L1 deficient male mice and same sex wild-type littermates, and tested for binding of 1. […] Membranes from wild type mice are on the left and from NPC1L1 deficient mice on the right.

rat NPC1L1 = rat NPC1L1 (Rattus norvegicus, UniProt Q6T3U3); assay: ^35S-2 competition binding, rat NPC1L1 transfected CHO cells; design: expressed in transfected cells; pCDNA3); conditions: 5 nM ^35S-2, 2 hours at 37° C.; read-out: Recombinant rat NPC1L1 Ki
Description: Rat NPC1L1 transfected CHO cells (˜500,000 cells/assay) were incubated with 5 nM ^35S-2 (˜1 million dpm/assay) for 2 hours at 37° C. in the absence or presence of increasing concentrations of EZE-glucuronide (compound 1), compounds 2, 3, 5, 6, or 8. Compound 8 is an analog of compound 2 wherein the hydroxyl group in the 3-hydroxylpropyl moiety of 2 is replaced with an oxo group.

[4] = Monkey BBM Ki (nM), 0.03% sodium taurocholate and 0.05% digitonin, 1.25 mg protein/ml, 20 nM 1
[5] = 0.03% sodium taurocholate and 0.05% digitonin, 1.25 mg protein/ml, 100 nM 1, read-out: Rat BBM Ki
[6] = rat brush border membrane vesicles, read-out: RAT IC50 (nM), inhibition of ^3H-EZE-gluc binding
[7] = 3 nM ^35S-2, 20 μg protein/assay, read-out: inhibition constant Ki, Mouse
[8] = 50 nM ^3H-EZE-glucuronide, 150 μg protein/assay, read-out: inhibition constant Ki, Rat
[9] = native rat intestinal brush border membranes, read-out: Rat BBMV Ki

O=C(O)C1OC(Oc2ccc(C3C(CCC(O)c4ccc(F)cc4)C(=O)N3c3ccc(F)cc3)cc2)C(O)C(O)C1O (single isomer, unassigned) [Compound 4]
Ki [1, 4]: 22000 nM | Ki [2, 5]: 130000 nM | activity in vitro ([2]; in all species, Ki>100×KD for ezetimibe glucuronide): completely inactive | IC50 [2, 6]: > 100000 nM | Kd ([2]; rat membrane binding assay, read-out: Kd for the rat target): > 100000 nM

O=C1[C@H](CC[C@H](O)c2ccc(F)cc2)[C@@H](c2ccc(O)cc2)N1c1ccc(F)cc1 [ezetimibe]
Kd ([1]; KD (nM), Table 11, monkey, absence of detergents): 41 nM | Kd ([3]; Table 11, mouse, absence of detergents): 12000 nM | Kd ([2]; Table 11, rat, absence of detergents, read-out: KD): 542 nM

O=C(O)[C@H]1O[C@@H](Oc2ccc([C@@H]3[C@@H](CC[C@H](O)c4ccc(F)cc4)C(=O)N3c3ccc(F)cc3)cc2)[C@H](O)[C@@H](O)[C@@H]1O [Compound 1, Ezetimibe glucuronide]
Ki (rat NPC1L1): 790 nM | IC50 [1]: 41 nM | Kd ([1]; KD at equilibrium by competition of unlabeled compound against 1, 0.5-1.25 mg/ml protein, 22-50 nM 1, more than 3 hours): 38.6 nM | Kd ([1]; Kd (equilibrium saturation binding, Scatchard), ^3H-ezetimibe glucuronide, rhesus membranes, no detergent): 41 nM | Kd ([1]; Kd predicted from rate constants (Kd=koff/kon), rhesus membranes): 32 nM | Ki [1, 4]: 15 nM | residence time ([1]; read-out: half-life for dissociation of the complex, rhesus/monkey complex): ~90 min | kon ([1]; read-out: rate constant for association kon): 3900 M⁻¹ s⁻¹ | koff ([1]; read-out: rate constant for dissociation koff, rhesus membranes): 0.000123 s⁻¹ | concentration of binding site ([1]; rhesus membranes): 5.5 pmol/mg membrane protein | rate constant for dissociation koff ([1]; rhesus membranes, listed as [^3H]ezetimibe glucuronide): 0.00012 s⁻¹ | affinity for mouse membranes (in words) [3]: low affinity | Ki [3, 7]: 2300 nM | Kd ([3]; age-matched wild-type mice, 0.03% sodium taurocholate and 0.05% digitonin): 12000 nM | IC50 ([3]; mouse, read-out: in vitro binding affinity (IC50)): 12000 nM | Kd ([3]; murine membranes, text of b482): 10000 nM | Ki ([3]; wild-type mice, 5 mg/ml protein, 500 nM 1, 0.03% taurocholate, 0.05% digitonin, read-out: Ki, competition of unlabeled ezetimibe glucuronide against 1): 12000 nM | rate constant for association kon ([2]; 25 nM 1, rat membranes, 25° C.): 5,540 M^−1 s^−1 | kobs ([2]; 25 nM of 1 and 3 mg/ml protein at 25° C.): 0.004 s⁻¹ | Ki [2, 8]: 530 nM | Kd ([2]; 1.5 mg/ml protein, 50 nM 1, 1 hour, read-out: KD at equilibrium by competition of unlabeled compound against 1): 600 nM | Ki [2, 5]: 390 nM | Bmax ([2]; ^3H-EZE-glucuronide, rat BBMV): 20.7 pmol/mg protein | Kd ([2]; ^3H-ezetimibe glucuronide, rat membranes, no detergent, read-out: KD (equilibrium saturation binding, Scatchard)): 542 nM and 540 nM | Ki [2, 9]: 600 nM | IC50 [2, 6]: 530 nM | rate constant for dissociation koff ([2]; rat membranes, dissociation initiated with 100 μM unlabeled ezetimibe glucuronide): 0.0024 s⁻¹ | Kd ([2]; rat membranes, read-out: Kd predicted from rate constants (Kd=koff/kon)): 440 nM | IC50 ([2]; rat, read-out: in vitro binding affinity (IC50)): 542 nM | residence time ([2]; read-out: half-life of dissociation): 4.7 min | kon ([2]; read-out: rate constant for association kon, 25 nM 1, rat membranes, 25° C.): 5500 M⁻¹ s⁻¹ | kon ([2]; read-out: rate constant for association kon, rat brush border membranes): 5540 M⁻¹ s⁻¹ | koff ([2]; read-out: rate constant for dissociation koff): 0.0024 s⁻¹

CS(=O)(=O)NCC#Cc1ccc(N2C(=O)[C@H](CC[C@H](O)c3ccc(F)cc3)[C@H]2c2ccc(O[C@@H]3O[C@H](C(=O)O)[C@@H](O)[C@H](O)[C@H]3O)cc2)cc1 [Compound 2, 4-[(2S,3R)-3-[(3S)-3 (4-fluorophenyl)-3-hydroxypropyl]-1-(4-{3-[(methylsulfonyl)amino]prop-1-yn-1-yl}phenyl)-4-oxoazetidin-2-yl]phenyl β-D-glucopyranosiduronic acid]
Ki (rat NPC1L1): 12 nM | potency relative to ezetimibe glucuronide ([1]; rhesus membrane preparations): equipotent | affinity for mouse membranes (in words) [3]: enhanced affinity | Ki [3, 7]: 144 nM | binding to wild type control membranes ([3]; 4 nM ^35S-2): detectable binding | Kd ([3]; control (wild type) mouse membranes, 4 nM ^35S-2, 3 hours at 37° C.): 156 nM | Ki [2, 8]: 15 nM | Ki [2, 9]: 15 nM | potency relative to ezetimibe glucuronide ([2]; rat enterocyte brush border membrane preparations): 35 fold

O=C(CC[C@H]1C(=O)N(c2ccc(F)cc2)[C@@H]1c1ccc(O[C@@H]2O[C@H](C(=O)O)[C@@H](O)[C@H](O)[C@H]2O)cc1)c1ccc(F)cc1 [Compound 6]
Ki (rat NPC1L1): 84500 nM | Ki [1]: 3300 nM | Ki [2, 5]: 33000 nM | Ki [2, 9]: 70000 nM | IC50 [2, 6]: 70000 nM

O=C(O)[C@H]1O[C@@H](Oc2ccc([C@@H]3[C@@H](CCCc4ccc(F)cc4)C(=O)N3c3ccc(F)cc3)cc2)[C@H](O)[C@@H](O)[C@@H]1O [Compound 3]
Ki (rat NPC1L1): 2400 nM | Ki [1]: 150 nM | Ki [2, 5]: 1600 nM | Ki [2, 9]: 2300 nM | IC50 [2, 6]: 2300 nM

O=C(O)[C@H]1O[C@@H](Oc2ccc([C@@H]3[C@@H](CC[C@@H](O)c4ccc(F)cc4)C(=O)N3c3ccc(F)cc3)cc2)[C@H](O)[C@@H](O)[C@@H]1O [Compound 5]
Ki (rat NPC1L1): 5800 nM | Ki [1, 4]: 120 nM | Ki [2, 5]: 2800 nM | Ki [2, 9]: 3900 nM | IC50 [2, 6]: 3900 nM
